These results are taken from patent US20050202549A1, “Crystal structure” (Pfizer Inc, priority 2001, published 2005).

Test [1] has as its target T1, PDE5* (loop-swapped PDE5 catalytic domain) (Homo sapiens, UniProt O76074, C677D/E669N/H670S/H678E/I665L/I680V/INS676N/L675M/M681L/N661S/P671E/Q666I/Q674L/R658P/R667N/S663Q/S668T/Y664F).
T1 construct: Construction and Expression of PDE5* (E534-E858) in E. coli; made in house; host or cells: E. coli BL21 (DE3), pET21C
The test is described as follows: Soaking of inhibitor into C2 crystal form of PDE5* and X-ray structure determination. The format is binding. Here is the method:
Plate-shaped crystals of apo PDE5* obtained according to methods detailed in EXAMPLE 6 were transferred to a 20 μl drop of 0.1M sodium HEPES and 20% Polyethylene glycol 4000 in square microbridges. To this, 1.0 μl of a 20 mg/ml concentration of inhibitor dissolved in DMSO was added. Crystals were then transferred to a solution of 0.1M sodium HEPES pH 7.4, 20% Polyethylene glycol 4000 with 15% glycerol and then frozen during X-ray data collection.
X-ray diffraction data were collected with an RaxisIV image plate detector on an in-house FR-D rotating anode (Rigaku), with Osmic mirrors (MSC). All data were processed using the HKL package (Otwinowski & Minor, 1997).
Refinement was carried out in the resolution range 30-1.5 Å using CNX (Brünger et al., 1998) with the “mlf” maximum likelihood target function. Partial structure factors from a flat bulk-solvent model and anisotropic B-factor correction were supplied throughout the refinement.

The target of test [2] is T2, wild-type PDE5 catalytic domain (Homo sapiens, UniProt O76074).
T2 construct: Construction and Expression of PDE5 Wild-type Catalytic Domain (E534-N875); made in house; host or cells: baculovirus / insect cells (pFastbac1; Sf-9 for virus stocks, T.ni High5 named for expression)
The test is described as follows: X-ray structure of wild-type PDE5 catalytic domain complexed with Sildenafil. Particulars: X-ray structure of wild-type PDE5 complex; binding in the active site, blocking access for the cGMP substrate.

For `CCCc1nn(C)c2c(=O)[nH]c(-c3ccccc3OCC)nc12` [UK-088,800, 5-(2-ethoxyphenyl)-1-methyl-3-propyl-1,6-dihydro-7H-pyrazolo[4,3-d]pyrimidin-7-one], in test [1] (PDE5* C2 crystal soaked with ligand, map contoured at 2.5σ, phases prior to incorporation of ligand), the “(fo-fc) electron density map at the active site region” value is “clearly featured peak”. Further, the mode of inhibition entry in test [1] (X-ray structure of PDE5* complex, binding in the active site, blocking access for the cGMP substrate) was “competitive”.
Consider `CCCc1nn(C)c2c(=O)[nH]c(-c3cc(S(=O)(=O)N4CCN(C)CC4)ccc3OCC)nc12` [Sildenafil, 5-[2-ethoxy-5-(4-methyl-1-piperazinylsulphonyl)phenyl]-1-methyl-3-n-propyl-1,6-dihydro-7H-pyrazolo[4,3-d]pyrimidin-7-one], for which the mode of inhibition entry in test [2] is “competitive”.
